Tested on: BCR-ABL Arf-/- Luc+ ALL cells
Assay: Survival study of mice with BCR-ABL Arf-/- leukemia on discontinuous DEX regimen
Format: in vivo, mouse
Conditions: for median survival time: BCR-ABL Arf-/- ALL, discontinuous DEX
From the text: Murine BCR-ABL Arf^-/- Luc^+ ALL cells were created by Dr. Charles Sherr (St. Jude Children’s Research Hospital) and provided immediately prior to mouse injection by the laboratory of Dr. Mary Relling (St. Jude Children’s Research Hospital). The cells had been tested for mycoplasma and were authenticated by flow cytometry for cell surface markers, tested for their leukemia-inducing capabilities with serial dilutions of cell numbers (from 2 million down to 2,000 cells), and ensured that the cells with the luciferase constructs produced light when combined with luciferin. Only cells from early passage (P3-P15) were used for these experiments. The St Jude Children’s Research Hospital Institutional Biosafety Committee and IACUC approved the use of these cells for injection into mice. C57BL/6 VD3 sufficient (n = 24) and deficient (n = 22) male mice (8–18 wk of age) were anaesthetized using isoflurane and injected iv with 2,000 BCR-ABL Arf^-/- Luc^+ ALL cells on day zero. […] Xenogen IVIS-200 (Caliper Life Sciences, Hopkinton, MA) was used to acquire bioluminescent images 5 minutes post-intra peritoneal injection of 200 μL of 100 mg/kg D-Luciferin (Caliper Life Sciences, Hopkinton, MA). Mice were anaesthetized with isoflurane during this procedure. The bioluminescent signal (photons/s) from a fixed region of interest (ROI) is used to monitor the disease progression twice every week. Images acquired here were analyzed using Living Image 3.1 software (Caliper Life Sciences), where whole body luciferase flux measurements (photons/s) were quantified as disease burden. Animal Welfare: All efforts were taken to minimize suffering and distress in the survival studies. […] All other mice in the survival study were euthanized within hours of reaching the humane end point/end of study = moribund for any reason which was determined based on hind limb paralysis (very typically observed in mice with BCR-ABL ALL), scruffy coat, lethargy or an inability to obtain food or water (SJ IACUC protocol #100468–613). A portion of spleen and hind limb were fixed, paraffin embedded, cut, and slides stained with hematoxylin and eosin and evaluated by a St Jude Pathologist (Dr. Laura Janke) to confirm leukemia was the cause of death.

`C[C@@H]1C[C@H]2[C@@H]3CCC4=CC(=O)C=C[C@]4(C)[C@@]3(F)[C@@H](O)C[C@]2(C)[C@@]1(O)C(=O)CO` [DEX, dexamethasone] gave a median survival time (DEX-treated VD3 deficient male mice) of 59 days, a median survival time (DEX-treated VD3 sufficient male mice) of 36 days and a Survival proportions (VD3 Deficient, days survived 0) of 100. The Survival proportions (VD3 Deficient, days survived 22) was 90.5, the Survival proportions (VD3 Deficient, days survived 24) was 85.7 and the Survival proportions (VD3 Deficient, days survived 32) was 81. For the same molecule, the Survival proportions (VD3 Deficient, days survived 36) was 76.2, the Survival proportions (VD3 Deficient, days survived 38) was 71.4 and the Survival proportions (VD3 Deficient, days survived 48) was 61.9. The Survival proportions (VD3 Deficient, days survived 55) was 57.1, the Survival proportions (VD3 Deficient, days survived 59) was 47.6 and the Survival proportions (VD3 Sufficient, days survived 0) was 100. For the same molecule, the Survival proportions (VD3 Sufficient, days survived 15) was 90.9, the Survival proportions (VD3 Sufficient, days survived 22) was 86.4 and the Survival proportions (VD3 Sufficient, days survived 23) was 81.8. The Survival proportions (VD3 Sufficient, days survived 25) was 72.7, the Survival proportions (VD3 Sufficient, days survived 32) was 63.6 and the Survival proportions (VD3 Sufficient, days survived 34) was 59.1. For the same molecule, the Survival proportions (VD3 Sufficient, days survived 35) was 54.5, the Survival proportions (VD3 Sufficient, days survived 37) was 45.5 and the Survival proportions (VD3 Sufficient, days survived 38) was 40.9. The Survival proportions (VD3 Sufficient, days survived 48) was 27.3, the Survival proportions (VD3 Sufficient, days survived 55) was 22.7 and the Survival proportions (VD3 Sufficient, days survived 59) was 18.2.

From publication PMC8528301 (PLoS ONE, 2021)
